Values of other authors as cited in US6348193B1, “Method for inhibiting pathogenic fungi and bacteria in plants using Pseudomonas aureofaciens” (Board of Trustees of Michigan State University, priority 1999, dated 2002).

Assays:
G. graminis var. tritici = conditions: in the soil atmosphere
Magnaporthe poae = conditions: in vivo

Molecule | Concentration inhibitory to G. graminis var. tritici (G. graminis var. tritici) | Management of summer patch disease of turfgrass (Magnaporthe poae)
C=C [Ethylene, ethylene] | less than 5 parts-per-million | 
faeriefungin |  | equal to that of the chemical fungicide fenarimol
